Data taken from US20030162763A1, “Novel cephalosporin compounds and process for preparing the same” (priority 2000, published 2003).
In brackets after ≈: the same amount, converted by molar mass. Where two headings read alike, the source gives them in different places.

Key:
Assay in all cases: Minimum Inhibitory Concentration (MIC), agar dilution
S. aureus 241 = assay type: cell-based, Staphylococcus aureus; conditions: read-out: Sensitivity test result (MIC), S. aureus 241
Procedure: (§1) The effectiveness of the compound according to the present invention was determined by obtaining Minimum Inhibitory Concentration (MIC) of the compounds prepared by the above examples (I-1 to I-6) and vancomycin, which is the known compound having a potent activity against gram-positive strains, as the control drug against the standard strains. Specifically, Minimum Inhibitory Concentration was obtained by diluting the test material with a double dilution method, dispersing them in Mueller-Hinton agar medium, inoculating each of the test strain having 10^7 cfu (colony forming unit) per ml in an amount of 2 μl to the medium and then incubating them at 37° C. for 20 hours. From the result of Minimum Inhibitory Concentration test, it can be seen that the compound according to the present invention has a good activity against major pathogenic microorganisms, which cause hospital infection, including MRSA strains.

S. aureus 77 = assay type: cell-based, Staphylococcus aureus; conditions: for MIC: read-out: Sensitivity test result (MIC), S. aureus 77
Procedure: as §1

E. faecalis L239 = assay type: cell-based; conditions: Enterococcus faecalis, read-out: Sensitivity test result (MIC), E. faecalis L239
Procedure: as §1

[1] = tested on: Staphylococcus aureus giorgio; assay type: cell-based; conditions: for MIC: Staphylococcus aureus, read-out: Sensitivity test result (MIC), Staphylococcus aureus giorgio
Procedure: as §1

S. epidermidis R005 = assay type: cell-based; conditions: for MIC: Staphylococcus epidermidis, read-out: Sensitivity test result (MIC), S. epidermidis R005
Procedure: as §1

E. faecalis EFS004 = assay type: cell-based; conditions: Enterococcus faecalis, read-out: Sensitivity test result (MIC), E. faecalis EFS004
Procedure: as §1

[2] = tested on: Staphylococcus aureus K311; assay type: cell-based; conditions: read-out: Sensitivity test result (MIC), Staphylococcus aureus K311
Procedure: as §1

[3] = Staphylococcus aureus, 241, Table 1, Mueller-Hinton agar, 37° C., 20 hours
[4] = Staphylococcus aureus, 77, Table 1, Mueller-Hinton agar, 37° C., 20 hours
[5] = L239, Table 1, Mueller-Hinton agar, 37° C., 20 hours
[6] = Table 1, Mueller-Hinton agar, 37° C., 20 hours
[7] = R005, Table 1, Mueller-Hinton agar, 37° C., 20 hours
[8] = Staphylococcus aureus, 77, Table 2, Mueller-Hinton agar, 37° C., 20 hours
[9] = Table 2, Mueller-Hinton agar, 37° C., 20 hours
[10] = EFS004, Table 2, Mueller-Hinton agar, 37° C., 20 hours
[11] = K311, Table 2, Mueller-Hinton agar, 37° C., 20 hours
[12] = R005, Table 2, Mueller-Hinton agar, 37° C., 20 hours

MIC (S. aureus 241; [3]) | MIC (S. aureus 77; [4]) | MIC (E. faecalis L239; [5]) | MIC [1, 6] | MIC (S. epidermidis R005; [7]) | Compound | other results
2 µg/mL (≈ 3.57 µM) | 0.25 µg/mL (≈ 0.447 µM) | 2 µg/mL (≈ 3.57 µM) | < 0.008 µg/mL | 0.25 µg/mL (≈ 0.447 µM) | Nc1cc(SC2=C(C(=O)O)N3C(=O)[C@@H](NC(=O)CSc4cc(Cl)ccc4Cl)[C@H]3SC2)nc(N)n1 [Compound I-1, (6R,7R)-3-[(2,6-diamino-4-pyrimidinyl)sulfanyl]-7-({2-[(2,5-dichlorophenyl)-sulfanyl]acetyl}amino)-8-oxo-5-thia-1-azabicyclo[4.2.0]oct-2-ene-2-carboxylic acid] | –
4 µg/mL (≈ 7.14 µM) | 0.5 µg/mL (≈ 0.892 µM) | 2 µg/mL (≈ 3.57 µM) | 0.031 µg/mL (≈ 0.0553 µM) | 0.5 µg/mL (≈ 0.892 µM) | Nc1nc(O)cc(SC2=C(C(=O)O)N3C(=O)[C@@H](NC(=O)CSc4cc(Cl)ccc4Cl)[C@H]3SC2)n1 [Compound I-2, (6R,7R)-3-[(2-amino-6-hydroxy-4-pyrimidinyl)sulfanyl]-7-({2-[(2,5-dichloro-phenyl)sulfanyl]acetyl}amino)-8-oxo-5-thia-1-azabicyclo[4.2.0]oct-2-ene-2-carboxylic acid] | –
4 µg/mL (≈ 7.14 µM) | 1 µg/mL (≈ 1.78 µM) | 2 µg/mL (≈ 3.57 µM) | 0.016 µg/mL (≈ 0.0285 µM) | 0.5 µg/mL (≈ 0.892 µM) | Nc1cc(SC2=C(C(=O)O)N3C(=O)[C@@H](NC(=O)CSc4c(Cl)cccc4Cl)[C@H]3SC2)nc(O)n1 [Compound I-3, (6R,7R)-3-[(6-amino-2-hydroxy-4-pyrimidinyl)sulfanyl]-7-({2-[(2,6-dichloro-phenyl)sulfanyl]acetyl}amino)-8-oxo-5-thia-1-azabicyclo[4.2.0]oct-2-ene-2-carboxylic acid] | –

The next lines start with the molecule.

Compound | MIC (S. aureus 241; [3]) | MIC (S. aureus 77; [4]) | MIC (E. faecalis L239; [5]) | MIC [1, 6] | MIC (S. epidermidis R005; [7]) | other results
Nc1ccnc(SC2=C(C(=O)O)N3C(=O)[C@@H](NC(=O)Cc4ccccc4)[C@H]3SC2)n1 [Compound I-4, (6R,7R)-3-[(4-amino-2-pyrimidinyl)sulfanyl]-8-oxo-7-[(phenylacetyl)amino]-5-thia-1-azabicyclo[4.2.0]oct-2-ene-2-carboxylic acid] | > 64 µg/mL | 32 µg/mL (≈ 72.2 µM) | > 64 µg/mL | 4 µg/mL (≈ 9.02 µM) | 32 µg/mL (≈ 72.2 µM) | –
Nc1cc(SC2=C(C(=O)O)N3C(=O)[C@@H](NC(=O)CSc4cc(Cl)nc(Cl)c4)[C@H]3SC2)nc(N)n1 [Compound I-5, (6R,7R)-3-[(2,6-diamino-4-pyrimidinyl)sulfanyl]-7-({2-[(2,6-dichloro-4-pyridinyl)sulfanyl]acetyl}amino)-8-oxo-5-thia-1-azabicyclo[4.2.0]oct-2-ene-2-carboxylic acid] | – | – | – | – | – | MIC (S. aureus 77; [8]): 1 µg/mL (≈ 1.78 µM); MIC [1, 9]: 0.063 µg/mL (≈ 0.112 µM); MIC (E. faecalis EFS004; [10]): 4 µg/mL (≈ 7.14 µM); MIC [2, 11]: 1 µg/mL (≈ 1.78 µM); MIC (S. epidermidis R005; [12]): 1 µg/mL (≈ 1.78 µM)
Nc1nc(O)cc(SC2=C(C(=O)O)N3C(=O)[C@@H](NC(=O)CSc4cc(Cl)nc(Cl)c4)[C@H]3SC2)n1 [Compound I-6, (6R,7R)-3-[(2-amino-6-hydroxy-4-pyrimidinyl)sulfanyl]-7-({2-[(2,6-dichloro-4-pyridinyl)sulfanyl]acetyl}amino)-8-oxo-5-thia-1-azabicyclo[4.2.0]oct-2-ene-2-carboxylic acid] | – | – | – | – | – | MIC (S. aureus 77; [8]): 2 µg/mL (≈ 3.56 µM); MIC [1, 9]: 0.063 µg/mL (≈ 0.112 µM); MIC (E. faecalis EFS004; [10]): 2 µg/mL (≈ 3.56 µM); MIC [2, 11]: 1 µg/mL (≈ 1.78 µM); MIC (S. epidermidis R005; [12]): 0.5 µg/mL (≈ 0.891 µM)
CN[C@H](CC(C)C)C(=O)N[C@H]1C(=O)N[C@@H](CC(N)=O)C(=O)N[C@H]2C(=O)N[C@H]3C(=O)N[C@H](C(=O)N[C@H](C(=O)O)c4cc(O)cc(O)c4-c4cc3ccc4O)[C@H](O)c3ccc(c(Cl)c3)Oc3cc2cc(c3O[C@@H]2O[C@H](CO)[C@@H](O)[C@H](O)[C@H]2O[C@H]2C[C@](C)(N)[C@H](O)[C@H](C)O2)Oc2ccc(cc2Cl)[C@H]1O [Vancomycin, vancomycin, reference compound] | – | – | – | – | – | MIC (S. aureus 241; Staphylococcus aureus, 241, 20 h): 2 µg/mL (≈ 1.38 µM); MIC (S. aureus 77; Staphylococcus aureus, 77, 20 h): 1 µg/mL (≈ 0.69 µM); Sensitivity test result (MIC), S. aureus 77 (S. aureus 77; [9]): 1 µg/mL; MIC (E. faecalis L239; L239, 20 h): 2 µg/mL (≈ 1.38 µM); MIC ([1]; 20 h): 1 µg/mL (≈ 0.69 µM); Sensitivity test result (MIC), Staphylococcus aureus giorgio [1, 9]: 1 µg/mL; MIC (E. faecalis EFS004; EFS004, 20 h): 1 µg/mL (≈ 0.69 µM); MIC ([2]; K311, 20 h): 2 µg/mL (≈ 1.38 µM); MIC (S. epidermidis R005; R005, 20 h): 1 µg/mL (≈ 0.69 µM); Sensitivity test result (MIC), S. epidermidis R005 (S. epidermidis R005; [9]): 1 µg/mL
